Tested on: termites
Assay: Soil treatment at discrete locations around a house to be built, protection against termites (Example 1)
Type: in vivo
Conditions: for attack of termite observed: 1 year after building the house, 0.01 g/m^2 of soil at future corners and wall crossings, treated area 5 m per 10 m of perimeter
Excerpt: In an area where termites are passing or traveling, plans for a house are made. The plans are that the house will have a rectangular shape of 15 m×10 m with 4 rooms at the lower level.
Compound (A) is actually put on the soil at a rate of 0.01 g/m^2 of the soil at the location of the future corners of the house and at the crossing of the walls corresponding to each room according to the following scheme: [drawing 2]
The treated area represents 5 m per 10 m of perimeter.

SMILES	attack of termite observed	holes in parts of the walls, % of the volume (one year after building the house, similar experiment to Example 1)
N#Cc1nn(-c2c(Cl)cc(C(F)(F)F)cc2Cl)c(N)c1[S+]([O-])C(F)(F)F (stereo not drawn) [Compound (A), 5-amino 1-(2,6-dichloro 4-trifluoromethylphenyl) 4-trifluoromethylsulfinyl 3-cyanopyrazole]	no attack of termite	–
CCOP(=S)(OCC)Oc1nc(Cl)c(Cl)cc1Cl [chlorpyrifos]	strong attack of termites	more than 10%
